One assay relates to Pfeiffer. Description: Methylated lysine of histone-H3 (H3K27Me3) detection by ELISA, Pfeiffer cells. Type of assay: cell-based, human. Conditions: 7 days treatment, H3K27Me3 normalized to total histone-3, read-out: IC50 of cell methylation, Pfeiffer. As for the experimental part: (§1) The operations for adherent cells and suspension cells cultured in 96-well plates were slightly different after they had been treated with compound (4-fold dilution 20 uM-0.009 nM, 3 duplicate wells) for 7 days, and the operations are summarized as follows: For adherent cells, after discarding the medium, 75 uL of 1-fold hypotonic lysis buffer (10 mM Tris-HCl, pH 7.5, containing halt protease inhibitor and PMSF with a final concentration of 1 mM) was added; the plate was frozen at −80° C. for at least 1 h or overnight; once the plate was taken away from the −80° C. environment, 120 uL (to a final volume of about 195 uL) of 1-fold hypotonic lysis buffer (containing protease inhibitor) was added, and the plate was thawed at room temperature and shaken for 2 min for mixing; and 8 uL (to a final volume of about 203 uL) of 2.5 M NaCl was added to each well to a final NaCl concentration of 100 mM and then the plate was shaken for an additional 2 min for mixing.
(§2) For suspension cells (final volume of medium was 100 uL/well), 25 uL of 5-fold hypotonic lysis buffer (50 mM Tris-HCl, pH 7.5, containing halt protease inhibitor and PMSF with a final concentration of 1 mM) was added, and the plate was frozen at −80° C. for at least 1 h or overnight. Once the plate was taken away from the −80° C. environment, 20 uL of 0.625 M NaCl was added to each well to a final NaCl concentration of about 100 mM, and the mixture was mixed well.
(§3) 75 uL or 100 uL of sample (with duplicate wells provided) was added to two 96-well ELISA plates (ThermoFisher Scientific; Immulon 4HBX 3885) and the plates were coated with total protein lysate and incubated overnight at 4° C. 50 uL of lysate was retained for protein quantitation if necessary. The sealing of the plates must be ensured. The plates were washed twice with 300 uL of 1×PBST (PBS containing 0.05% Tween 20) per well. Each well was blocked with 300 uL of dilution (PBS+2% BSA+0.05% Tween 20), incubated for 2 h at room temperature, and washed twice with 1×PBST. Primary antibodies were diluted with a dilution solution containing 1% BSA+0.05% Tween 20. 75-100 uL of anti-H3K27Me3 antibody (CST; 9733; 50% glycerol stock, 1:1,000) or anti-total histone-3 antibody (Abcam; ab1791; 50% glycerol stock, 1:10,000) was added to each well. The plates were incubated for 90 min at room temperature or incubated overnight at 4° C. The plates were washed three times with 1×PBST. 75-100 uL of anti-Rb-IgG-HRP secondary antibody (Cell Signaling Technology; 7074) was added per well, 1:2000 diluted secondary antibody for anti-H3K 27Me3 plate and 1:6000 diluted secondary antibody for anti-histone total histone-3 plate. The plates were incubated at room temperature for 90 min. The plate assayed with anti-histone-3 antibody was used to normalize the data for the corresponding plate assayed with anti-H3K 27me3. The plates must be washed at least three times with 1×PBST after primary or secondary antibody incubation. The plates were assayed by adding 75-100 uL of 3,3′,5,5′-tetramethylbenzidine substrate (CST or ThermoFisher Scientific; TMBS) per well and incubated away from light for 30 min at 37° C. The reaction was terminated by adding 100 uL of 0.5 M H2SO4 per well. The absorbance was read at 450 nm. Curve fitting was performed using Graph Pad program.
Background: In an ELISA, binding on a coated surface is turned into a signal by an enzyme label.

A further assay has as its target EZH2 enzyme complex (Homo sapiens (Human), UniProt Q15910). As to the kind of experiment: Test on EZH2 inhibitory activity (TR-FRET). Type of assay: biochemical. Conditions: EZH2 enzyme complex 25 ng/uL, histone H3 peptide 4 uM, SAM 2 uM, 300 min; read-out: IC50 of EZH2 inhibition. For orientation: TR-FRET usually uses a lanthanide donor and a delayed reading to cut background.

The next assay deals with WSU-DLCL2. As to the kind of experiment: Methylated lysine of histone-H3 (H3K27Me3) detection by ELISA, WSU-DLCL2 cells. Type of assay: cell-based. The note with it: WSU-DLCL2, 7 days treatment, H3K27Me3 normalized to total histone-3, read-out: IC50 of cell methylation, WSU-DLCL2. The procedure:
as §1, §2, §3

Where two headings read alike, the source gives them in different places.

EZH2 enzyme complex, sequence (Q15910 whole entry): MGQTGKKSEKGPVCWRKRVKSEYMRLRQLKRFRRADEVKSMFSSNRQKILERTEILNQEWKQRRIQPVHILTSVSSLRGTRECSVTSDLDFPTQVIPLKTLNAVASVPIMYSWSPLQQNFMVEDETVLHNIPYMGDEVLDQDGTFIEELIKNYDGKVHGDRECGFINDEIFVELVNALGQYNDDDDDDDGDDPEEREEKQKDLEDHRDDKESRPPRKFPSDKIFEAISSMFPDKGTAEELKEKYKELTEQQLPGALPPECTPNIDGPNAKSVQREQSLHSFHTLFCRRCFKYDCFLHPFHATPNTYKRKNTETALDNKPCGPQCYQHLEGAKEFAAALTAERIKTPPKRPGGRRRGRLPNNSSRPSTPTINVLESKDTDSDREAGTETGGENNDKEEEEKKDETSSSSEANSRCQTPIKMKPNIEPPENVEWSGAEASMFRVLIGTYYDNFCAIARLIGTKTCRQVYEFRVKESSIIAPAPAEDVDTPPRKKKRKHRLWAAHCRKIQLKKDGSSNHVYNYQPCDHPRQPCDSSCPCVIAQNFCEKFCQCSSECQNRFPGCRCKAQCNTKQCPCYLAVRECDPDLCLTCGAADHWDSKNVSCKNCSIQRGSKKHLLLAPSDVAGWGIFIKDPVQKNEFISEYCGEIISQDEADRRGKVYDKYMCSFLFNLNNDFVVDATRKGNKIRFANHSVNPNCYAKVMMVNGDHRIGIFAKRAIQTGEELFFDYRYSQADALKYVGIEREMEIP
EZH2 enzyme complex, sequence (O75530 whole entry partner): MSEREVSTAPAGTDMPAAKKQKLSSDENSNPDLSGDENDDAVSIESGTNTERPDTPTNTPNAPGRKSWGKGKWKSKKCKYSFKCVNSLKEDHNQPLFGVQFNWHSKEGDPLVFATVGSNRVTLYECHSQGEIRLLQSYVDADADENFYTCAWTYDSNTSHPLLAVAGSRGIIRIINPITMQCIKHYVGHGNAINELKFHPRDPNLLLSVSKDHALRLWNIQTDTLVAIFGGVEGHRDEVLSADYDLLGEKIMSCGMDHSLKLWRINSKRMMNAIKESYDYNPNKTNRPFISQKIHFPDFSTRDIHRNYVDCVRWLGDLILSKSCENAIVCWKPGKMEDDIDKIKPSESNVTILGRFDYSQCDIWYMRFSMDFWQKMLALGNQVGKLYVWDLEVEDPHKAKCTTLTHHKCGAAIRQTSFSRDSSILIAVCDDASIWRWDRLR
EZH2 enzyme complex, sequence (Q15022 whole entry partner): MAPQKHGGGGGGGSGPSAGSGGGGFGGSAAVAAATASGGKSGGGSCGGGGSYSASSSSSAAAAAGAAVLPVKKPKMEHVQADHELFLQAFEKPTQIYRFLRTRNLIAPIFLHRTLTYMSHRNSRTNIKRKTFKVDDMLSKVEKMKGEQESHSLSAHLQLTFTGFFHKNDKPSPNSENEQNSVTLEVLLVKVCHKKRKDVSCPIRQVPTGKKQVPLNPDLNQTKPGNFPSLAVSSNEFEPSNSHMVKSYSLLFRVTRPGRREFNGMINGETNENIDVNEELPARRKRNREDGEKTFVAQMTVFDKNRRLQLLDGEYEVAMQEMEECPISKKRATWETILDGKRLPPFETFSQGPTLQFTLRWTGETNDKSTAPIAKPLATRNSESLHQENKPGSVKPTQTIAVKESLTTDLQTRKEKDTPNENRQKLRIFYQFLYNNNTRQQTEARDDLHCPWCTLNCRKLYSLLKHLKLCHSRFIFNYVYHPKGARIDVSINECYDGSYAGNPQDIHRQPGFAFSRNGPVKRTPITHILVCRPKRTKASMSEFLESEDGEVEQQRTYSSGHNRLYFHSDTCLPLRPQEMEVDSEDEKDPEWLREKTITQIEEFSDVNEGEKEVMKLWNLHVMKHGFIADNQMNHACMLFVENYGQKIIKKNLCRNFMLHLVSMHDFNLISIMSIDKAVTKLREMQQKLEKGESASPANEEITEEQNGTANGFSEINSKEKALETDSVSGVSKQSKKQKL
Protocol for EZH2 enzyme complex: • EZH2 enzyme complex: 25 ng/uL • Histone H3 peptide substrate: 4 uM • SAM: 2 uM • Reaction time: 300 min Procedures • 1. Each compound disclosed herein was diluted with 1×HMT buffer and transferred to a 384-well assay plate at 3 uL per well; • 2. The EZH2 enzyme solution was prepared with 1×HMT buffer and transferred to the 384-well assay plate at 2 uL per well; • 3. The above assay plate was incubated for 30 min; • 4. A mixture solution of SAM and histone H3 peptide substrate at 2-fold concentration was prepared with 4×HMT buffer; • 5. 5 uL of the mixture solution of SAM and substrate was added to each well of the assay plate to react at room temperature, and the assay plate was sealed with plastic; • 6. After incubation for 5 h, 10 uL of TR-FRET detection buffer containing Tb-labeled antibody and dye-labeled receptor was added to each well of the assay plate; • 7. After incubation for 1 h at room temperature, the assay plate was detected; • 8.

In the case of `CCN(c1cc(O[C@H]2C[C@@H](N3CCN(C)CC3)C2)cc(C(=O)NCc2c(C)cc(C)[nH]c2=O)c1C)C1CCOCC1` [Example 19, N-((4,6-dimethyl-2-oxo-1,2-dihydropyridin-3-yl)methyl)-3-(ethyl(tetrahydro-2H-pyran-4-yl)amino)-2-methyl-5-(cis-3-(4-methylpiperazin-1-yl)cyclobutoxy)benzamide], the IC50 is under 0.05 µM in the assay on Pfeiffer (Homo sapiens, 168 h); 0.01 to 0.1 µM at EZH2 enzyme complex; 0.05 to 0.5 µM in the assay on WSU-DLCL2 (Homo sapiens, WSUDLCL2, 168 h).
As for `CCN(c1cc(C2CC2CN2CCOCC2)cc(C(=O)NCc2c(C)cc(C)[nH]c2=O)c1C)C1CCOCC1` (stereo not drawn) [Example 72, N-((4,6-dimethyl-2-oxo-1,2-dihydropyridin-3-yl)methyl)-3-(ethyl(tetrahydro-2H-pyran-4-yl)amino)-2-methyl-5-(2-(morpholinylmethyl)cyclopropyl)benzamide], the IC50 was under 0.05 µM with Pfeiffer, 0.01 to 0.1 µM at EZH2 enzyme complex and 0.05 to 0.5 µM in the assay on WSU-DLCL2.
`CCN(c1cc(S(=O)(=O)C2CCC2)cc(C(=O)NCc2c(C)cc(C)[nH]c2=O)c1C)C1CCOCC1` [Example 10, 5-(cyclobutylsulfonyl)-N-((4,6-dimethyl-2-oxo-1,2-dihydropyridin-3-yl)methyl)-3-(ethyl(tetrahydro-2H-pyran-4-yl)amino)-2-methylbenzamide]: the IC50 in the assay on Pfeiffer (Homo sapiens, 168 h) is 0.5 to 1 µM; at EZH2 enzyme complex, 0.1 to 1 µM; with WSU-DLCL2 (Homo sapiens, WSUDLCL2, 168 h), over 1 µM.
For the compound `CCN(c1cc(O[C@H]2C[C@@H](CN3CCOCC3)C2)cc(C(=O)NCc2c(C)cc(C)[nH]c2=O)c1C)C1CCOCC1` [Example 6, N-((4,6-dimethyl-2-oxo-1,2-dihydropyridin-3-yl)methyl)-3-(ethyl(tetrahydro-2H-pyran-4-yl)amino)-2-methyl-5-(cis-3-(morpholinylmethyl)cyclobutoxy)benzamide], the IC50 with Pfeiffer (Homo sapiens, 168 h) was under 0.05 µM; at EZH2 enzyme complex it was 0.01 to 0.1 µM; with WSU-DLCL2 (Homo sapiens, WSUDLCL2, 168 h), 0.05 to 0.5 µM.
With `CCN(c1cc(O[C@H]2C[C@H](N3C[C@@H](C)O[C@@H](C)C3)C2)cc(C(=O)NCc2c(C)cc(C)[nH]c2=O)c1Cl)C1CCOCC1` [Example 48, 2-chloro-N-((4,6-dimethyl-2-oxo-1,2-dihydropyridin-3-yl)methyl)-5-(trans-3-(cis-2,6-dimethylmorpholinyl)cyclobutoxy)-3-(ethyl(tetrahydro-2H-pyran-4-yl)amino)benzamide], the IC50 is over 1 µM in the assay with Pfeiffer (Homo sapiens, 168 h); 0.01 to 0.1 µM on EZH2 enzyme complex; 0.05 to 0.5 µM in the assay on WSU-DLCL2 (Homo sapiens, WSUDLCL2, 168 h).
Consider `CCN(c1cc(OC2CC(C(=O)N3CCOCC3)C2)cc(C(=O)NCc2c(C)cc(C)[nH]c2=O)c1C)C1CCOCC1` (stereo not drawn) [Example 13, N-((4,6-dimethyl-2-oxo-1,2-dihydropyridin-3-yl)methyl)-3-(ethyl(tetrahydro-2H-pyran-4-yl)amino)-2-methyl-5-(3-(morpholine-4-carbonyl)cyclobutoxy)benzamide], for which the concentration for half-maximal inhibition (IC50) was under 0.05 µM in the assay with Pfeiffer (Homo sapiens, 168 h); 0.01 to 0.1 µM at EZH2 enzyme complex; 0.05 to 0.5 µM with WSU-DLCL2 (Homo sapiens, WSUDLCL2, 168 h).
The corresponding values for `CCN(c1cc(O[C@H]2C[C@@H](N3CCC(C)CC3)C2)cc(C(=O)NCc2c(C)cc(C)[nH]c2=O)c1C)C1CCOCC1` [Example 56, N-((4,6-dimethyl-2-oxo-1,2-dihydropyridin-3-yl)methyl)-3-(ethyl(tetrahydro-2H-pyran-4-yl)amino)-2-methyl-5-(cis-3-(4-methylpiperidin-1-yl)cyclobutoxy)benzamide] are 0.05 to 0.5 µM, 0.01 to 0.1 µM and 0.05 to 0.5 µM.
As for `CCN(c1cc(SC2CCC2)cc(C(=O)NCc2c(C)cc(C)[nH]c2=O)c1C)C1CCOCC1` [Example 8, 5-(cyclobutylthio)-N-((4,6-dimethyl-2-oxo-1,2-dihydropyridin-3-yl)methyl)-3-(ethyl(tetrahydro-2H-pyran-4-yl)amino)-2-methylbenzamide], the IC50 with Pfeiffer (Homo sapiens, 168 h) was 0.05 to 0.5 µM; on EZH2 enzyme complex, 0.01 to 0.1 µM; in the assay on WSU-DLCL2 (Homo sapiens, WSUDLCL2, 168 h), over 1 µM.
As to `CCN1CCN([C@H]2C[C@@H](Oc3cc(C(=O)NCc4c(C)cc(C)[nH]c4=O)c(C)c(N(CC)C4CCOCC4)c3)C2)CC1` [Example 23, N-((4,6-dimethyl-2-oxo-1,2-dihydropyridin-3-yl)methyl)-3-(ethyl(tetrahydro-2H-pyran-4-yl)amino)-5-(cis-3-(4-ethylpiperazin-1-yl)cyclobutoxy)-2-methylbenzamide], the IC50 in the assay on Pfeiffer (Homo sapiens, 168 h) was under 0.05 µM; at EZH2 enzyme complex, 0.01 to 0.1 µM; in the assay on WSU-DLCL2 (Homo sapiens, WSUDLCL2, 168 h) it was over 1 µM.
As for `CCN(c1cc(OC2CC(C)C2)cc(C(=O)NCc2c(C)cc(C)[nH]c2=O)c1C)C1CCOCC1` (stereo not drawn) [Example 2, N-((4,6-dimethyl-2-oxo-1,2-dihydropyridin-3-yl)methyl)-3-(ethyl(tetrahydro-2H-pyran-4-yl)amino)-2-methyl-5-(3-methylcyclobutoxy)benzamide], the IC50 in the assay on Pfeiffer (Homo sapiens, 168 h) fell in the range of 0.05 to 0.5 µM; on EZH2 enzyme complex, 0.01 to 0.1 µM; in the assay on WSU-DLCL2 (Homo sapiens, WSUDLCL2, 168 h) it was 0.5 to 1 µM.
`CCN(c1cc(O[C@H]2C[C@H](N3CCN(C(C)=O)CC3)C2)cc(C(=O)NCc2c(C)cc(C)[nH]c2=O)c1C)C1CCOCC1` [Example 26, trans-5-(3-(4-acetylpiperazin-1-yl)cyclobutoxy)-N-((4,6-dimethyl-2-oxo-1,2-dihydropyridin-3-yl)methyl)-3-(ethyl(tetrahydro-2H-pyran-4-yl)amino)-2-methylbenzamide]: the IC50 was under 0.05 µM in the assay with Pfeiffer (Homo sapiens, 168 h); 0.01 to 0.1 µM at EZH2 enzyme complex; 0.05 to 0.5 µM in the assay with WSU-DLCL2 (Homo sapiens, WSUDLCL2, 168 h).
`CCN(c1cc(C2CC2CN2CCN(CC(C)(C)C)CC2)cc(C(=O)NCc2c(C)cc(C)[nH]c2=O)c1C)C1CCOCC1` (stereo not drawn) [Example 76, N-((4,6-dimethyl-2-oxo-1,2-dihydropyridin-3-yl)methyl)-3-(ethyl(tetrahydro-2H-pyran-4-yl)amino)-2-methyl-5-(2-((4-neopentylpiperazin-1-yl)methyl)cyclopropyl)benzamide]: the IC50 was under 0.05 µM in the assay on Pfeiffer (Homo sapiens, 168 h); 0.01 to 0.1 µM on EZH2 enzyme complex; 0.05 to 0.5 µM in the assay with WSU-DLCL2 (Homo sapiens, WSUDLCL2, 168 h).
`CCN(c1cc(O[C@H]2C[C@H](N3CC4CCC(C3)O4)C2)cc(C(=O)NCc2c(C)cc(C)[nH]c2=O)c1Cl)C1CCOCC1` [Example 49, 5-(trans-3-(8-oxa-3-azabicyclo[3.2.1]octan-3-yl)cyclobutoxy)-2-chloro-N-((4,6-dimethyl-2-oxo-1,2-dihydropyridin-3-yl)methyl)-3-(ethyl(tetrahydro-2H-pyran-4-yl)amino)benzamide]: the IC50 is over 1 µM in the assay with Pfeiffer (Homo sapiens, 168 h); 0.01 to 0.1 µM at EZH2 enzyme complex; 0.05 to 0.5 µM with WSU-DLCL2 (Homo sapiens, WSUDLCL2, 168 h).
The corresponding values for `CCN(c1cc(OC2CC(F)(F)C2)cc(C(=O)NCc2c(C)cc(C)[nH]c2=O)c1C)C1CCOCC1` [Example 3, 5-(3,3-difluorocyclobutoxy)-N-((4,6-dimethyl-2-oxo-1,2-dihydropyridin-3-yl)methyl)-3-(ethyl(tetrahydro-2H-pyran-4-yl)amino)-2-methylbenzamide] are under 0.05 µM, 0.01 to 0.1 µM and 0.05 to 0.5 µM.
On to `CCN(c1cc(OC2CC(C)(C)C2)cc(C(=O)NCc2c(C)cc(C)[nH]c2=O)c1C)C1CCOCC1` [Example 12, N-((4,6-dimethyl-2-oxo-1,2-dihydropyridin-3-yl)methyl)-5-(3,3-dimethylcyclobutoxy)-3-(ethyl(tetrahydro-2H-pyran-4-yl)amino)-2-methylbenzamide], for which the IC50 is 0.05 to 0.5 µM with Pfeiffer (Homo sapiens, 168 h); 0.01 to 0.1 µM on EZH2 enzyme complex; over 1 µM in the assay with WSU-DLCL2 (Homo sapiens, WSUDLCL2, 168 h).

A word on the IC50: it is the point on the concentration scale where inhibition reaches its midpoint.

Source of the values: US12390472B2 (SUZHOU SINOVENT PHARMACEUTICALS CO., LTD., priority 2018, dated 2025).
